Results: US20060029544A1, “Receptor-binding cyclic peptides and methods of use” (The Regents of the University of California Office of …, priority 2004, published 2006)

Key:
αvβ5 integrin = biological target: T1, αvβ5 integrin (Homo sapiens, UniProt P06756+P18084); assay: ELISA: biotinylated vitronectin binding to captured soluble αvβ5-mFc in the presence of RGD peptides; conditions: 20 μM peptide; 100% = signal without peptide
T1 construct: chimeras comprising the extracellular domain of αvβ3, αvβ5, α5β1, and αIIbβ3 linked to the Fc domain of either mouse IgG; purchased Celltech plc (supplied, no catalogue number); host or cells: unpurified hybridoma / tissue culture supernatant from secreting cells
T1 sequence (P06756 31-992 limits assumed): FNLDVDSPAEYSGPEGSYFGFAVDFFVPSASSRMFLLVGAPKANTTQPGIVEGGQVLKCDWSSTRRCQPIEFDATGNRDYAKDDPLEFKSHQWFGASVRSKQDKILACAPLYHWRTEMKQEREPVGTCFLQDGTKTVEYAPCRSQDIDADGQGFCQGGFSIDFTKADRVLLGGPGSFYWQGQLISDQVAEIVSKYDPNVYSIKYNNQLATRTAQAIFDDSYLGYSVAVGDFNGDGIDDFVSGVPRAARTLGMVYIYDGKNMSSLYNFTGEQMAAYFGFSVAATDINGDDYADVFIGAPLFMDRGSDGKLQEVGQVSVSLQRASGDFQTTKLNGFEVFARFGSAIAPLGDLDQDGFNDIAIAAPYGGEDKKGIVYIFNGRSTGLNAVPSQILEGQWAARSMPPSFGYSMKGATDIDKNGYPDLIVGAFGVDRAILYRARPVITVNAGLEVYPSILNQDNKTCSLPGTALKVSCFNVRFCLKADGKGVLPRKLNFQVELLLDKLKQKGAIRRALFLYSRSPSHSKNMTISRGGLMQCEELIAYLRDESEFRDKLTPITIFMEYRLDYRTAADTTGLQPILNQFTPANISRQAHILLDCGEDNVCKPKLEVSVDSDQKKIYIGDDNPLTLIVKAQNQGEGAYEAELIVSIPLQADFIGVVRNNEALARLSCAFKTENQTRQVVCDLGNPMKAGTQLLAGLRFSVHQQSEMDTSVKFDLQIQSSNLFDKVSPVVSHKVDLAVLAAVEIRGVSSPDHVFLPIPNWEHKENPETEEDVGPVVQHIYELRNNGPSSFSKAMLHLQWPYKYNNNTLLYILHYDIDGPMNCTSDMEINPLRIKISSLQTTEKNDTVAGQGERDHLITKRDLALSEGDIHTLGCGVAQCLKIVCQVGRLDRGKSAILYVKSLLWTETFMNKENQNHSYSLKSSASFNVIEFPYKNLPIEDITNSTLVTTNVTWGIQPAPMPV
T1 sequence (P18084 24-719 limits assumed): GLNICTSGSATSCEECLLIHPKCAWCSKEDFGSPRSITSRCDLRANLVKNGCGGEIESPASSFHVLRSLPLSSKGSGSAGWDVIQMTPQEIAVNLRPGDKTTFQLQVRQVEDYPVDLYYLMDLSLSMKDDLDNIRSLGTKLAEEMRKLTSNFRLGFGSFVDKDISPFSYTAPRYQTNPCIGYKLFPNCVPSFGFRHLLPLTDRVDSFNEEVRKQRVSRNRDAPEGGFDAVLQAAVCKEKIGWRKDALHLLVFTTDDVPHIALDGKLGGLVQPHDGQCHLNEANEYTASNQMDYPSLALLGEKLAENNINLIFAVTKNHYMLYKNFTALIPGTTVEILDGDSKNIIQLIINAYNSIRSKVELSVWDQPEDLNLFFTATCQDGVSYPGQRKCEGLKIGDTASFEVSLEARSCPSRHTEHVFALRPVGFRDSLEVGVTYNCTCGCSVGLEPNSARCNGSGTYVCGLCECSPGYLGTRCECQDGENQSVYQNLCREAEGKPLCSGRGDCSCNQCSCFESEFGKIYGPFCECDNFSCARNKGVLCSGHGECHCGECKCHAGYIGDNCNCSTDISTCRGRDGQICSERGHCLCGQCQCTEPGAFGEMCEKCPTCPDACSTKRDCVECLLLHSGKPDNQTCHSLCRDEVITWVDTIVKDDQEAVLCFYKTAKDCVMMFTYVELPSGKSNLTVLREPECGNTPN
Source text: Four different soluble integrins were supplied by Celltech plc. Soluble forms of αvβ3, αvβ5, α5β1, and αIIbβ3 integrin were generated by constructing chimeras comprising the extracellular domain of αvβ3, αvβ5, α5β1, and αIIbβ3 linked to the Fc domain of either mouse IgG (αvβ3-mFc, αvβ5-mFc, and αIIbβ3-mFc) or human IgG (α5β1-hFc) as described by Stephens et al., Cell Adhes. Commun., 7:377-390 (2000) and Coe et al., J. Biol. Chem., 276:35854-35866 (2001). Since the four soluble integrin chimeras were supplied either as purified proteins (αvβ3-mFc and α5β1-hFc) or as unpurified hybridoma supernatants (αIIbβ3-mFc and αvβ5-mFc), it was necessary to use two types of ELISAs. […] In one type of ELISA (FIGS. 2A and 2B), the immobilized component is a 50 kDa fragment of fibronectin. In the second type of ELISA (FIGS. 2C and 2D), the immobilized component is a goat anti-mFc antibody that is used to capture chimeric proteins so that the RGD binding site of the integrin is maximally exposed. Each three-sided box in FIG. 2 represents a single well of a 96-well plate, and the components are listed in the sequence of their addition to the assay. The immobilized component at the bottom of the well is bound to the well by electrostatic interactions.
To analyze the affinity and selectively of RGD peptides for αIIbβ3 and αvβ5, 96-well ELISA plates were coated with anti-murine Fc antibody at 5 μg/ml in PBS, 100 μl per well and left overnight at 4° C. The plates were washed with PBS using a Denley Wellwash 4 Mk 2. Washing was repeated twice with a 400 μl wash per well. 200 μl/well of blocking buffer was then added for 1 hour followed by a repeat washing with PBS. 100 μl of tissue culture supernatant from cells secreting soluble αIIbβ3-mFc or αvβ5-mFc, diluted 1:2 in conjugate buffer, was added to each well. Plates were incubated with shaking for 1 hour followed by two washes with PBS. 100 μl of an RGD peptide (at concentrations of 200, 20, and 2 μM), followed by either 100 μl of biotinylated fibrinogen (at 1 μg/ml in conjugate buffer) or 100 μl of biotinylated vitronectin (at 2 μg/ml in conjugate buffer) were added to each well and incubated for 2 hours with shaking. After incubation, the plates were washed with PBS as described above. 100 μl of neutravidin-peroxidase was added to each well and the plates were incubated for 30 minutes with shaking, followed by two washes with PBS. 100 μl of TMB substrate was added to each well and the plates were shaken during color development. Plates were read using a plate spectrophotometer at 630 nm.
Two negative and two positive controls were used in both types of ELISAs. For example, the negative controls were wells that contained 50 μl of an active control peptide, integrin, and biotinylated ligand or 50 μl of the active control peptide and 50 μl of buffer. These negative control wells typically develop little to no color. […] These wells typically develop the maximum amount of color.
FIGS. 3-6 illustrate the percent binding of the vitronectin, fibronectin, or fibrinogen ligand to αvβ5, α5β1, αIIbβ3, or αvβ3 integrin in the presence of RGD peptides (i.e., linear (A), cyclic (B), or 4-[^19F]-fluorobenzoyl cyclic (C)) at different concentrations, with 100% maximum signal being the signal obtained in the absence of the peptide.

A375M melanoma cell line = assay: Adhesion assay: [51Cr]-A375M cells to vitronectin; format: cell-based, human; conditions: 20 μM peptide
Description: RGD peptides were plated at a maximum concentration of 200 μM and a minimum concentration of 2 nM. For each RGD peptide sequence, linear peptides (A), cyclic peptides (B), and 4-[^19F]-fluorobenzoyl cyclic peptides (C) were assayed. Each RGD peptide concentration was performed in quadruplicate and each experiment was repeated twice.
Plastic 96-well plates (Falcon 3912; Becton Dickinson) were coated with 50 μl substrate (10 μg/ml laminin or 5 μg/ml vitronectin). The plates were incubated at 37° C. in an 8% CO2 atmosphere for 1 hour. Unbound protein was flicked off and the plates were washed with phosphate buffered saline (PBS) and blocked with bovine serum albumin (0.1% w/v BSA)/PBS/0.1% sodium azide) for 1 hour. The plates were then washed with PBS, placed on a bed of ice and 25 μl of peptide was added to the wells.
Sodium [^51Cr] chromate was purchased from Amersham International, UK. […]
25 μl (about 10,000 cells) were added to each quadruplicate well and the plates incubated at 37° C. in an 8% CO2 atmosphere for 1 hour. […] The radioactivity associated with each well was determined in a gamma counter (1261 Multigamma; Wallac, Sweden). Quadruplicate 25 μl samples of labeled cells were counted as 100% input values. To determine non-specific binding, the ability of cells to bind BSA-coated wells was also assessed. […]
The results were calculated as follows: [formula] […]

RGDY(OMe)K [B7]
vitronectin binding to αvβ5, % of the maximum signal (αvβ5 integrin): 32.8% | adhesion of [51Cr]-A375M cells to vitronectin, normalized to absence of peptide (100%) (A375M melanoma cell line): 72.79%±0.04%
